Assay results from the NIST ThermoML archive (doi:10.1021/je034041x).
Numbers after ± are expanded uncertainties.

Tests used:
[1] = Liquid
[2] = xn = mol fraction of the nth substance listed; details: Liquid

O [water]
[1]
Details | viscosity [mPa·s]
273.9 K, 670 kPa | 1.833 ± 0.12
274.2 K, 4630 kPa | 1.802 ± 0.12
274.3 K, 670 kPa | 1.827 ± 0.12
274.5 K, 670 kPa | 1.808 ± 0.12
274.6 K, 4610 kPa | 1.804 ± 0.12
274.7 K, 670 kPa | 1.774 ± 0.12
275 K, 670 kPa | 1.737 ± 0.12
275.1 K, 670 kPa | 1.725 ± 0.11
275.3 K, 670 kPa | 1.705 ± 0.11
275.6 K, 690 kPa | 1.683 ± 0.11
275.9 K, 101.3 kPa | 1.64 ± 0.11
275.9 K, 690 kPa | 1.66 ± 0.11
276 K, 690 kPa | 1.652 ± 0.11
276.1 K, 101.3 kPa | 1.637 ± 0.11
276.1 K, 4780 kPa | 1.67 ± 0.11
276.3 K, 101.3 kPa | 1.631 ± 0.11
276.3 K, 4790 kPa | 1.652 ± 0.11
276.4 K, 690 kPa | 1.622 ± 0.11
276.5 K, 4810 kPa | 1.634 ± 0.11
276.7 K, 101.3 kPa | 1.594 ± 0.11
276.7 K, 690 kPa | 1.613 ± 0.11
276.9 K, 101.3 kPa | 1.588 ± 0.1
277.1 K, 690 kPa | 1.589 ± 0.1
277.2 K, 101.3 kPa | 1.555 ± 0.1
277.5 K, 690 kPa | 1.558 ± 0.1
277.7 K, 4850 kPa | 1.459 ± 0.096
278.3 K, 101.3 kPa | 1.491 ± 0.098
278.6 K, 4890 kPa | 1.459 ± 0.095
279.1 K, 710 kPa | 1.442 ± 0.094
279.3 K, 101.3 kPa | 1.437 ± 0.094
279.3 K, 710 kPa | 1.428 ± 0.094
279.6 K, 4910 kPa | 1.425 ± 0.093
279.9 K, 101.3 kPa | 1.405 ± 0.092
281 K, 710 kPa | 1.357 ± 0.089
281 K, 4910 kPa | 1.375 ± 0.09
281.8 K, 769 kPa | 1.329 ± 0.087
282.1 K, 729 kPa | 1.319 ± 0.086
282.1 K, 4920 kPa | 1.338 ± 0.087
282.2 K, 101.3 kPa | 1.286 ± 0.084
282.2 K, 4870 kPa | 1.335 ± 0.087

O=C=O [carbon dioxide] + O
[2]
Details | viscosity [mPa·s]
273.9 K, 670 kPa, x1 = 0.00869 | 1.855 ± 0.12
274.2 K, 4630 kPa, x1 = 0.00295 | 2.827 ± 0.18
274.3 K, 670 kPa, x1 = 0.00857 | 1.851 ± 0.12
274.5 K, 670 kPa, x1 = 0.0085 | 1.839 ± 0.12
274.6 K, 4610 kPa, x1 = 0.00294 | 2.951 ± 0.19
274.7 K, 670 kPa, x1 = 0.00844 | 1.818 ± 0.12
275 K, 670 kPa, x1 = 0.00834 | 1.794 ± 0.12
275.1 K, 670 kPa, x1 = 0.00831 | 1.807 ± 0.12
275.3 K, 670 kPa, x1 = 0.00824 | 1.771 ± 0.12
275.6 K, 690 kPa, x1 = 0.00815 | 1.739 ± 0.11
275.9 K, 690 kPa, x1 = 0.00805 | 1.705 ± 0.11
276 K, 690 kPa, x1 = 0.00802 | 1.694 ± 0.11
276.1 K, 4780 kPa, x1 = 0.00291 | 2.225 ± 0.14
276.3 K, 4790 kPa, x1 = 0.00291 | 2.179 ± 0.14
276.4 K, 690 kPa, x1 = 0.00789 | 1.647 ± 0.11
276.5 K, 4810 kPa, x1 = 0.0029 | 2.171 ± 0.14
276.7 K, 690 kPa, x1 = 0.00779 | 1.605 ± 0.11
277.1 K, 690 kPa, x1 = 0.00766 | 1.604 ± 0.1
277.5 K, 690 kPa, x1 = 0.00754 | 1.57 ± 0.1
277.7 K, 4850 kPa, x1 = 0.00287 | 2.078 ± 0.14
278.6 K, 4890 kPa, x1 = 0.00285 | 1.948 ± 0.13
279.1 K, 710 kPa, x1 = 0.00702 | 1.438 ± 0.094
279.3 K, 710 kPa, x1 = 0.00695 | 1.44 ± 0.094
279.6 K, 4910 kPa, x1 = 0.00283 | 1.848 ± 0.12
281 K, 710 kPa, x1 = 0.00641 | 1.367 ± 0.089
281 K, 4910 kPa, x1 = 0.0028 | 1.728 ± 0.11
281.8 K, 769 kPa, x1 = 0.00615 | 1.225 ± 0.08
282.1 K, 729 kPa, x1 = 0.00605 | 1.267 ± 0.082
282.1 K, 4920 kPa, x1 = 0.00277 | 1.539 ± 0.1
282.2 K, 4870 kPa, x1 = 0.00277 | 1.576 ± 0.1
